Experimental data published in the kinase profiling compilation of Christmann-Franck et al. (2016).

Tests used:
Assay in all cases: KINOMEscan competition binding
Conditions in all cases: compound 10.0 µM
DDR2 (human) = DDR2 (human) (UniProt Q16832)
MST1R (human) = MST1R (human) (UniProt Q04912)
MAP2K2 (human) = MAP2K2 (human) (UniProt P36507)
LIMK2 (human) = LIMK2 (human) (UniProt P53671)
DYRK1A (human) = DYRK1A (human) (UniProt Q13627)
TNK2 (human) = TNK2 (human) (UniProt Q07912)
CSNK2A2 (human) = CSNK2A2 (human) (UniProt P19784)
TAOK2 (human) = TAOK2 (human) (UniProt Q9UL54)
CSNK1A1 (human) = CSNK1A1 (human) (UniProt P48729)
MAP2K3 (human) = MAP2K3 (human) (UniProt P46734)
CHUK (human) = CHUK (human) (UniProt O15111)
FLT4 (human) = FLT4 (human) (UniProt P35916)
RPS6KA5 KD2 (human) = RPS6KA5 KD2 (human) (UniProt O75582)
EIF2AK1 (human) = EIF2AK1 (human) (UniProt Q9BQI3)
IRAK1 (human) = IRAK1 (human) (UniProt P51617)
EGFR (human) = EGFR (human) (UniProt P00533)
BRSK1 (human) = BRSK1 (human) (UniProt Q8TDC3)
[1] = system: RET (human), P07949 [V804M]
CLK1 (human) = CLK1 (human) (UniProt P49759)
CAMK2D (human) = CAMK2D (human) (UniProt Q13557)
[2] = biological target: TYK2 JH2 pseudokinase (human) (UniProt P29597)
PAK1 (human) = PAK1 (human) (UniProt Q13153)
VRK2 (human) = VRK2 (human) (UniProt Q86Y07)
AXL (human) = AXL (human) (UniProt P30530)
SGK110 (human) = SGK110 (human) (UniProt P0C264)
SRC (human) = SRC (human) (UniProt P12931)
MARK1 (human) = MARK1 (human) (UniProt Q9P0L2)
[3] = system: MET (human), P08581 [Y1235D]
RET (human) = RET (human) (UniProt P07949)
MAP2K1 (human) = MAP2K1 (human) (UniProt Q02750)
ROCK2 (human) = ROCK2 (human) (UniProt O75116)
CASK (human) = CASK (human) (UniProt O14936)
PIM3 (human) = PIM3 (human) (UniProt Q86V86)
CSNK2A1 (human) = CSNK2A1 (human) (UniProt P68400)
MAPK12 (human) = MAPK12 (human) (UniProt P53778)
RIOK3 (human) = RIOK3 (human) (UniProt O14730)
SRPK1 (human) = SRPK1 (human) (UniProt Q96SB4)
MAP3K9 (human) = MAP3K9 (human) (UniProt P80192)
MAPK1 (human) = MAPK1 (human) (UniProt P28482)
EPHA8 (human) = EPHA8 (human) (UniProt P29322)

MAPK1 (human), sequence (P28482 whole entry, looked up): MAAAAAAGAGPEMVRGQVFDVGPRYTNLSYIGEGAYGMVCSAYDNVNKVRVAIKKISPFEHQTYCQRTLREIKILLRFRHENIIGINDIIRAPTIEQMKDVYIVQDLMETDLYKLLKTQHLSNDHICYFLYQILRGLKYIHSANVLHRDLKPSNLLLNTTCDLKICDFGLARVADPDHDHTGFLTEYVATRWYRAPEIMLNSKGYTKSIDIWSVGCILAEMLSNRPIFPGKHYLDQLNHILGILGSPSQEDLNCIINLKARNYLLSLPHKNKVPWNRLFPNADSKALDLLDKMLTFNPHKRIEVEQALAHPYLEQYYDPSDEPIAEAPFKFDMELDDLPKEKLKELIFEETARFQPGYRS
TNK2 (human), sequence (Q07912 whole entry, looked up): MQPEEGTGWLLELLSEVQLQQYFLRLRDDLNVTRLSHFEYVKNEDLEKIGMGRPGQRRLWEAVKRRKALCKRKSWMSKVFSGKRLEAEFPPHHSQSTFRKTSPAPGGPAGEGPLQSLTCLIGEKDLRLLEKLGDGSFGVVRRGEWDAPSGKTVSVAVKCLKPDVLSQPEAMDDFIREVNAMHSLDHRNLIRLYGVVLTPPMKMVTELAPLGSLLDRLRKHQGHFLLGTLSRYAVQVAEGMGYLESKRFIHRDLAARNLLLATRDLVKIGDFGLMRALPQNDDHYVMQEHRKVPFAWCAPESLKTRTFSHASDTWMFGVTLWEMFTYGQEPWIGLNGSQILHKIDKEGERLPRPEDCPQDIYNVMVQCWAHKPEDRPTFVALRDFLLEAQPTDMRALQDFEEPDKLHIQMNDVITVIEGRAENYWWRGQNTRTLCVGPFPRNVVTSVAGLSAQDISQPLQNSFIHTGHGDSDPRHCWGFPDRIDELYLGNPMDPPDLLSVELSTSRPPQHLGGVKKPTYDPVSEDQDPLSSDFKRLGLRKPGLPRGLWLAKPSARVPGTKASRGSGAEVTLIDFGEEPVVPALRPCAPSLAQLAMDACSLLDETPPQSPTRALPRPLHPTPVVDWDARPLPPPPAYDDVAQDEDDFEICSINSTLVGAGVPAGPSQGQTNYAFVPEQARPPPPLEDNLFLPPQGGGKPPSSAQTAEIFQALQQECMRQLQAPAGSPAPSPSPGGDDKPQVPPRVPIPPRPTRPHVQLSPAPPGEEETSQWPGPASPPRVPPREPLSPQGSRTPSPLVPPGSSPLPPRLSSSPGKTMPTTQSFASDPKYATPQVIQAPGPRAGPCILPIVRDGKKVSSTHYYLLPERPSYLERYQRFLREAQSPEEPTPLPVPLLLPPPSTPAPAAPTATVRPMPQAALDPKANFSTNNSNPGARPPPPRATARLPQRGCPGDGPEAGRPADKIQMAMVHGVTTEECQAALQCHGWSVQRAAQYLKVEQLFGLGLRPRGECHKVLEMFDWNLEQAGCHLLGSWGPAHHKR
RIOK3 (human), sequence (O14730 whole entry, looked up): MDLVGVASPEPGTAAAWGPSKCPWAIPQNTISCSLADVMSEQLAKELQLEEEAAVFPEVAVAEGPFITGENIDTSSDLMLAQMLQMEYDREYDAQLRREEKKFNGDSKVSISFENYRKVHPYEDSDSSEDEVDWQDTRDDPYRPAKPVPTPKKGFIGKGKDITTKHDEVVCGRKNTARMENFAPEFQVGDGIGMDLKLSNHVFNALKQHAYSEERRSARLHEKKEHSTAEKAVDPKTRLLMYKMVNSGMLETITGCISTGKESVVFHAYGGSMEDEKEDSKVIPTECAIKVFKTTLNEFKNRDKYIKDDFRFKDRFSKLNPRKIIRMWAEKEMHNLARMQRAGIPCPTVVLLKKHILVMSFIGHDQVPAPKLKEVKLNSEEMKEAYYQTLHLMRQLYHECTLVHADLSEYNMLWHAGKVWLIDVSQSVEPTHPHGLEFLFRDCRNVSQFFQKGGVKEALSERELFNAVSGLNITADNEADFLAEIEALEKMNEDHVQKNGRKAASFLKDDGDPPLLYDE
MAP2K3 (human), sequence (P46734 whole entry, looked up): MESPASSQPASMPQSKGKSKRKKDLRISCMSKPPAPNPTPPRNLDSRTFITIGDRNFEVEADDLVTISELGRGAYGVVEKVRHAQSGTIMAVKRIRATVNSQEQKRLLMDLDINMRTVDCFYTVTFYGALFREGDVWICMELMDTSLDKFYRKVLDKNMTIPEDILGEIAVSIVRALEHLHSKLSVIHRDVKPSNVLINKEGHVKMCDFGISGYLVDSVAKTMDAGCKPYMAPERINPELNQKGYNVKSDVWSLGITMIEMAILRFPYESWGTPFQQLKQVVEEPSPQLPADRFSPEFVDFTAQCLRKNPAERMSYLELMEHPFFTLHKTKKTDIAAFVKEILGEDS
EIF2AK1 (human), sequence (Q9BQI3 whole entry, looked up): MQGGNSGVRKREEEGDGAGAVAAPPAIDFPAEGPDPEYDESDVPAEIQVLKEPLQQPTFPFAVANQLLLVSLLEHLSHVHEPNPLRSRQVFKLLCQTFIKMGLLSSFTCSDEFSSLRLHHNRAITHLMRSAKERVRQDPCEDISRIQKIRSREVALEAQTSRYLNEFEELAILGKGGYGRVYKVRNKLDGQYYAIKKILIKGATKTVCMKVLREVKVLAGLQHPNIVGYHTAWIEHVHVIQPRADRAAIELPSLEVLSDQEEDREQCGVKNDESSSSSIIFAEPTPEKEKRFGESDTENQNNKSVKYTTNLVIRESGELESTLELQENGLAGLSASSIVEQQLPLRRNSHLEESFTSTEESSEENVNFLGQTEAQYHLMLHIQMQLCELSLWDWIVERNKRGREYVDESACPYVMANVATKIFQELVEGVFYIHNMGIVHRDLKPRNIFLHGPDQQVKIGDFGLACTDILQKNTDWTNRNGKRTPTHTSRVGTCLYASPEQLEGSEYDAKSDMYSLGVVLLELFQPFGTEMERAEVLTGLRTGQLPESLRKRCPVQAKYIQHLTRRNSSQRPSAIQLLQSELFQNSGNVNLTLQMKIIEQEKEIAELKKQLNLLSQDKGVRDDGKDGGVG
MAP2K1 (human), sequence (Q02750 whole entry, looked up): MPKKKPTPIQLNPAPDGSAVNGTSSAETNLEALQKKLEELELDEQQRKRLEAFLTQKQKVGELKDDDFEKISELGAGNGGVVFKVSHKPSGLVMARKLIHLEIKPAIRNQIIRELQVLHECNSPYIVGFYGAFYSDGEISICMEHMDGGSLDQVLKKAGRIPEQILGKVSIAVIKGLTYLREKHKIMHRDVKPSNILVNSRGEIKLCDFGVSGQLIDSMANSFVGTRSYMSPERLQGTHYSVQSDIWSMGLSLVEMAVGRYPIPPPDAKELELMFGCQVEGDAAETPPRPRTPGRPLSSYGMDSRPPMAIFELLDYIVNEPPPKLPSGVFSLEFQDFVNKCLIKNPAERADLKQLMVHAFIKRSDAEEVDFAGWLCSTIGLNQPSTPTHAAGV
VRK2 (human), sequence (Q86Y07 whole entry, looked up): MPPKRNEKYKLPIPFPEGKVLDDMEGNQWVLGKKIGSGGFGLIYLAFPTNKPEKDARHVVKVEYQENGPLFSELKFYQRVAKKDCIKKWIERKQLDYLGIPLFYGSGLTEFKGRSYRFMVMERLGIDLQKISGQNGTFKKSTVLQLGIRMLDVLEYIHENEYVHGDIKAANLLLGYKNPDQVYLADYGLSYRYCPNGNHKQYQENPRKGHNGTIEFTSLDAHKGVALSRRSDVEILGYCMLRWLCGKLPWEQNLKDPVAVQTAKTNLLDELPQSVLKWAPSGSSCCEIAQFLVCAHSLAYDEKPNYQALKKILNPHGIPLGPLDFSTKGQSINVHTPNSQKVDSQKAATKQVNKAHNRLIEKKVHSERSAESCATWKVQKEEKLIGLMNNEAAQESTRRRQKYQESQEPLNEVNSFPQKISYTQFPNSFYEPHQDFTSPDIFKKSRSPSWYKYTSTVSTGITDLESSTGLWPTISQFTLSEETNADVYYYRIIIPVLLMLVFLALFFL
DDR2 (human), sequence (Q16832 whole entry, looked up): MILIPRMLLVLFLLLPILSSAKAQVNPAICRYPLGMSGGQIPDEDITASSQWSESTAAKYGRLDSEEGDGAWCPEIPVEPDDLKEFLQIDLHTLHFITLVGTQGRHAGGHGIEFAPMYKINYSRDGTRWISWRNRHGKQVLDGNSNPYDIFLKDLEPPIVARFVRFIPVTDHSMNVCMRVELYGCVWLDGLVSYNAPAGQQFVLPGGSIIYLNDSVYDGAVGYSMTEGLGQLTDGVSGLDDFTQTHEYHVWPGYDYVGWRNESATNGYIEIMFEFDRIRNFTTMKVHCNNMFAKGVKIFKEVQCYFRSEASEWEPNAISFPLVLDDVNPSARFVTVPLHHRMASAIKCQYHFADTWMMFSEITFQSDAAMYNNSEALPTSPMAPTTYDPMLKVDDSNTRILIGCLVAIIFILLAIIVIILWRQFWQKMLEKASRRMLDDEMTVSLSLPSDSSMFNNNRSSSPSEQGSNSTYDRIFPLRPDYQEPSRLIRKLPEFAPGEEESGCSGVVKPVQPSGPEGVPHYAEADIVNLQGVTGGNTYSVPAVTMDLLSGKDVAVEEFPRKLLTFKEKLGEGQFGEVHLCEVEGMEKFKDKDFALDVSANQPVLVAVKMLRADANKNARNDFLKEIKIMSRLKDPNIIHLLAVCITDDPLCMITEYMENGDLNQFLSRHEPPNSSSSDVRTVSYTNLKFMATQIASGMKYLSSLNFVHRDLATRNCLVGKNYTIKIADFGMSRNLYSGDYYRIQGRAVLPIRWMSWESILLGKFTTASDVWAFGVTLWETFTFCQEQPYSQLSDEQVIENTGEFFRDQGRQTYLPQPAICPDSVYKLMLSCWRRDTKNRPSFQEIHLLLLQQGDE
CSNK2A2 (human), sequence (P19784 whole entry, looked up): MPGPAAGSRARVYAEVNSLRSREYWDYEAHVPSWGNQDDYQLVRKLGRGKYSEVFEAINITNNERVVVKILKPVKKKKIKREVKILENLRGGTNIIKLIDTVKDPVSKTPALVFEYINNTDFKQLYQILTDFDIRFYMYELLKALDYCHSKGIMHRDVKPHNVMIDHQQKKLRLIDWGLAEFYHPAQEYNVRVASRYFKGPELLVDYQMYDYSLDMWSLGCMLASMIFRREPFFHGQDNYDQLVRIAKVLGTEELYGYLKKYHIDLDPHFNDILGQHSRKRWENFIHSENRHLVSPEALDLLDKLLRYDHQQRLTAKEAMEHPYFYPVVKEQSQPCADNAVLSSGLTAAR

| SMILES | kinase still bound, per cent of control (DDR2 (human)) [%] | kinase still bound, per cent of control (MST1R (human)) [%] | kinase still bound, per cent of control (MAP2K2 (human)) [%] | kinase still bound, per cent of control (LIMK2 (human)) [%] | kinase still bound, per cent of control (DYRK1A (human)) [%] | kinase still bound, per cent of control (TNK2 (human)) [%] | kinase still bound, per cent of control (CSNK2A2 (human)) [%] | kinase still bound, per cent of control (TAOK2 (human)) [%] | kinase still bound, per cent of control (CSNK1A1 (human)) [%] | kinase still bound, per cent of control (MAP2K3 (human)) [%] | kinase still bound, per cent of control (CHUK (human)) [%] | kinase still bound, per cent of control (FLT4 (human)) [%] | kinase still bound, per cent of control (RPS6KA5 KD2 (human)) [%] | kinase still bound, per cent of control (EIF2AK1 (human)) [%] | kinase still bound, per cent of control (IRAK1 (human)) [%] | kinase still bound, per cent of control (EGFR (human)) [%] | kinase still bound, per cent of control (BRSK1 (human)) [%] | kinase still bound, per cent of control (CLK1 (human)) [%] | kinase still bound, per cent of control (CAMK2D (human)) [%] | kinase still bound, per cent of control [2] [%] | also measured |
| --- | --- | --- | --- | --- | --- | --- | --- | --- | --- | --- | --- | --- | --- | --- | --- | --- | --- | --- | --- | --- | --- |
| COc1cc(C(=O)N2CCC(N3CCN(C)CC3)CC2)ccc1Nc1ncc2c(n1)N(C)c1ccccc1C(=O)N2C | 100 | 98 | 99 | 100 | 99 | 18 | 93 | 65 | 100 | 75 | 100 | 100 | 92 | 100 | 100 | 84 | 81 | 28 | 28 | 100 | kinase still bound, per cent of control [1]: 80%; kinase still bound, per cent of control (PAK1 (human)): 95%; kinase still bound, per cent of control (VRK2 (human)): 99%; kinase still bound, per cent of control (AXL (human)): 100%; kinase still bound, per cent of control (SGK110 (human)): 62%; kinase still bound, per cent of control (SRC (human)): 100%; kinase still bound, per cent of control (MARK1 (human)): 87%; kinase still bound, per cent of control [3]: 100%; kinase still bound, per cent of control (RET (human)): 100%; kinase still bound, per cent of control (MAP2K1 (human)): 100%; kinase still bound, per cent of control (ROCK2 (human)): 87%; kinase still bound, per cent of control (CASK (human)): 85%; kinase still bound, per cent of control (PIM3 (human)): 88%; kinase still bound, per cent of control (CSNK2A1 (human)): 100%; kinase still bound, per cent of control (MAPK12 (human)): 76%; kinase still bound, per cent of control (RIOK3 (human)): 85%; kinase still bound, per cent of control (SRPK1 (human)): 94%; kinase still bound, per cent of control (MAP3K9 (human)): 93%; kinase still bound, per cent of control (MAPK1 (human)): 85%; kinase still bound, per cent of control (EPHA8 (human)): 80% |
| O=c1cc(N2CCOCC2)oc2c(-c3cccc4c3sc3ccccc34)cccc12 | 100 | 97 | 97 | 100 | 61 | 97 | 100 | 98 | 78 | 91 | 100 | 92 | 80 | 100 | 96 | 94 | 100 | 89 | 80 | 100 | kinase still bound, per cent of control [1]: 95%; kinase still bound, per cent of control (PAK1 (human)): 71%; kinase still bound, per cent of control (VRK2 (human)): 100%; kinase still bound, per cent of control (AXL (human)): 100%; kinase still bound, per cent of control (SGK110 (human)): 100%; kinase still bound, per cent of control (SRC (human)): 90%; kinase still bound, per cent of control (MARK1 (human)): 100%; kinase still bound, per cent of control [3]: 59%; kinase still bound, per cent of control (RET (human)): 100%; kinase still bound, per cent of control (MAP2K1 (human)): 76%; kinase still bound, per cent of control (ROCK2 (human)): 100%; kinase still bound, per cent of control (CASK (human)): 100%; kinase still bound, per cent of control (PIM3 (human)): 65%; kinase still bound, per cent of control (CSNK2A1 (human)): 74%; kinase still bound, per cent of control (MAPK12 (human)): 99%; kinase still bound, per cent of control (RIOK3 (human)): 100%; kinase still bound, per cent of control (SRPK1 (human)): 100%; kinase still bound, per cent of control (MAP3K9 (human)): 100%; kinase still bound, per cent of control (MAPK1 (human)): 95%; kinase still bound, per cent of control (EPHA8 (human)): 82% |
| N#CCNC(=O)c1ccc(-c2ccnc(Nc3ccc(N4CCOCC4)cc3)n2)cc1 | 100 | 100 | 100 | 68 | 66 | 93 | 6.2 | 100 | 81 | 53 | 0 | 48 | 9.3 | 100 | 1.3 | 100 | 100 | 9.6 | 34 | 100 | kinase still bound, per cent of control (PAK1 (human)): 100%; kinase still bound, per cent of control (VRK2 (human)): 94%; kinase still bound, per cent of control (AXL (human)): 57%; kinase still bound, per cent of control (SGK110 (human)): 83%; kinase still bound, per cent of control (SRC (human)): 100%; kinase still bound, per cent of control (MARK1 (human)): 66%; kinase still bound, per cent of control [3]: 100%; kinase still bound, per cent of control (RET (human)): 50%; kinase still bound, per cent of control (MAP2K1 (human)): 100%; kinase still bound, per cent of control (ROCK2 (human)): 0.7%; kinase still bound, per cent of control (CASK (human)): 100%; kinase still bound, per cent of control (PIM3 (human)): 100%; kinase still bound, per cent of control (CSNK2A1 (human)): 52%; kinase still bound, per cent of control (MAPK12 (human)): 100%; kinase still bound, per cent of control (RIOK3 (human)): 0%; kinase still bound, per cent of control (SRPK1 (human)): 1.6%; kinase still bound, per cent of control (MAP3K9 (human)): 45%; kinase still bound, per cent of control (MAPK1 (human)): 93%; kinase still bound, per cent of control (EPHA8 (human)): 83% |
